Key:
Format in all cases: functional
Rattus norvegicus [1] = species on record: Rattus norvegicus; assay: Stimulation of calcium currents by the compound in rat osteosarcoma cells at a concentration of 5.0 nM
Rattus norvegicus [2] = species on record: Rattus norvegicus; assay: Stimulation of calcium currents by the compound in rat osteosarcoma cells at a concentration of 0.01 nM
Rattus norvegicus [3] = species on record: Rattus norvegicus; assay: Stimulation of calcium currents by the compound in rat osteosarcoma cells at a concentration of 0.05 nM
Rattus norvegicus [4] = species on record: Rattus norvegicus; assay: Stimulation of calcium currents by the compound in rat osteosarcoma cells at a concentration of 0.5 nM

Row | Structure (SMILES) | Ca2+ current (Rattus norvegicus [1]) | Ca2+ current (Rattus norvegicus [2]) | Ca2+ current (Rattus norvegicus [3]) | Ca2+ current (Rattus norvegicus [4])
1 | C=C1/C(=C\C=C2/CCC[C@]3(C)C([C@@H](C)COCCCC(C)(C)O)CC[C@@H]23)C[C@H](O)C[C@H]1CO (stereo not given in full) | 8.93 mV | 4.94 mV | 7.3 mV | 10 mV
2 | C=C1/C(=C\C=C2/CCC[C@]3(C)[C@@H]([C@H](C)CCCC(C)(C)O)CC[C@@H]23)C[C@@H](O)C[C@@H]1O [CALCITRIOL] | 9.79 mV |  | 1.78 mV | 5.73 mV
3 | C=C1/C(=C\C=C2/CCC[C@]3(C)C([C@@H](C)COCCCC(C)(C)O)CC[C@@H]23)C[C@@H](O)C[C@@H]1CO (stereo not given in full) | 8.99 mV | 5.42 mV | 7.33 mV | 8.8 mV
4 | C=C1/C(=C\C=C2/CCC[C@]3(C)C([C@@H](C)CSc4cccc(C(C)(C)O)c4)CC[C@@H]23)C[C@H](O)C[C@H]1CO (stereo not given in full) | 8.58 mV |  |  | 6.24 mV
5 | C=C1/C(=C\C=C2/CCC[C@]3(C)C([C@@H](C)CSc4cccc(C(C)(C)O)c4)CC[C@@H]23)C[C@@H](O)C[C@@H]1CO (stereo not given in full) | 11.18 mV |  |  | 6.6 mV

Reference: ChEMBL document CHEMBL1152081, “1,25-Dihydroxyvitamin D3 Hybrid Analogs with Structural changes at both the A-ring and the C,D-ring side-chain. II” (1995)
